In patent publication US5266588A, “Compound produced by a strain of microtetraspora having antibacterial and neuritogenic activity” (Bristol-Myers Squibb Company, priority 1992, dated 1993):
In brackets after ≈: the same amount, converted by molar mass. Entries after “also recorded” stand apart in the source; their conditions may differ.

How the values were obtained:
[1] = literature table; cited from earlier work
Gram-positive bacteria = experiment: In vitro antibacterial activity against Gram-positive bacteria; type: cell-based
Experimental: (§1) Assay for the Antibacterial Activity
(§2) The MIC's of BU-4514N against various test microorganisms were determined by the serial 2-fold dilution method after overnight incubation at 32° C. Nutrient agar medium (Difco) was used for Gram-positive and Gram-negative bacteria.

S. aureus Smith = experiment: Antibacterial activity (serial 2-fold dilution MIC); type: cell-based; conditions: Staphylococcus aureus; Nutrient Agar, pH 7.0; 10^5 cells/ml; 32° C., 18 hr
Experimental: as §1, §2
(§3) Medium: Nutrient Agar, pH 7.0
(§4) Inoculum size: 10^5 cells/ml
(§5) Incubations: 32° C., 18 hr

B. subtilis PCI 219 = experiment: as above; type: cell-based; conditions: Bacillus subtilis, PCI219; Nutrient Agar, pH 7.0; 10^5 cells/ml; 32° C., 18 hr
Experimental: as §1, §2, §3, §4, §5

P. aeruginosa A9843A = experiment: as above; type: cell-based; conditions: Pseudomonas aeruginosa, 18 h, pH 7
Experimental: as §1, §2, §3, §4, §5

M. luteus PCI 1001 = experiment: as above; type: cell-based; conditions: Micrococcus luteus, PCI1001; Nutrient Agar, pH 7.0; 10^5 cells/ml; 32° C., 18 hr
Experimental: as §1, §2, §3, §4, §5

C. fleundii GN 7391 = experiment: as above; type: cell-based; conditions: Nutrient Agar, pH 7.0; 10^5 cells/ml; 32° C., 18 hr
Experimental: as §1, §2, §3, §4, §5

E. coli K12 = experiment: as above; type: cell-based; conditions: Escherichia coli, Nutrient Agar, pH 7.0, 10^5 cells/ml, 32° C., 18 hr
Experimental: as §1, §2, §3, §4, §5

E. coli NIHJ JC-2 = experiment: as above; type: cell-based; conditions: Escherichia coli, NIHJJC2; Nutrient Agar, pH 7.0; 10^5 cells/ml; 32° C., 18 hr
Experimental: as §1, §2, §3, §4, §5

K. pneumoniae PCI 602 = experiment: as above; type: cell-based; conditions: Klebsiella pneumoniae, PCI602; Nutrient Agar, pH 7.0; 10^5 cells/ml; 32° C., 18 hr
Experimental: as §1, §2, §3, §4, §5

S. aureus FDA 209P JC-1 = experiment: as above; type: cell-based; conditions: Staphylococcus aureus, FDA209P; Nutrient Agar, pH 7.0; 10^5 cells/ml; 32° C., 18 hr
Experimental: as §1, §2, §3, §4, §5

S. typhi 901 = experiment: as above; type: cell-based; conditions: Salmonella enterica, 18 h, pH 7
Experimental: as §1, §2, §3, §4, §5

S. aureus A15036 (MRSA) = experiment: as above; type: cell-based; conditions: Staphylococcus aureus, Nutrient Agar, pH 7.0, 10^5 cells/ml, 32° C., 18 hr
Experimental: as §1, §2, §3, §4, §5

E. coli Juhl A15119 = experiment: as above; type: cell-based; conditions: Escherichia coli, JUHLA15119; Nutrient Agar, pH 7.0; 10^5 cells/ml; 32° C., 18 hr
Experimental: as §1, §2, §3, §4, §5

Solubility = type: physicochemical
PC 12R cells = experiment: Assay for the neurite outgrowth (PC 12R cells pre-treated with 0.1 ng/ml NGF); type: cell-based, rat; conditions: for No. of Neurites: neurites over 10 mm long on monitor
Experimental: Assay for the Neurite Outgrowth
The PC 12R cell density was adjusted to 1×10^5 cells/ml and 180 μl aliquots of the cell suspension were added to assay wells in a 96 well microtiter plate (Suimitomo). […] For the positive controls, 5.0 ng/ml NGF was added to a well. As negative controls, PC 12R cells without NGF were also prepared. […] Then a 20 μl aliquot of a test sample at varied concentrations was added to the test well containing PC 12R cells pre-treated with 0.1 ng/ml NGF. After 24 hours' incubation, the medium was removed and the cells were fixed with 0.3% glutaraldehyde (Tokyo Kasei) in Dulbecco's phosphate buffered saline and stained with Harris hematoxylin solution (Merck).
The stained cells were observed under a phase-contrast microscope connected with a video camera-CRT system. PC 12R cells were magnified 500 times on the CRT monitor. The lengths of spikes of the negative control cells were measured in order to establish the standard length of a spike of the PC 12R cells.

[2] = tested on: retrograde neuronal cell death; septohippocampal connections; conditions: cited from earlier work
[3] = tested on: cholinergic neuron atrophy and spatial memory impairment; conditions: aged rats; cited from earlier work
[4] = tested on: PC12 pheochromocytoma cells; conditions: cited from earlier work
[5] = tested on: adrenal medullary autografts; conditions: intraperitoneal infusion, Parkinson's disease; cited from earlier work
[6] = 1.6 μg/ml, with 0.1 ng/ml NGF, 24 h
[7] = 3.1 μg/ml, with 0.1 ng/ml NGF, 24 h
[8] = 6.3 μg/ml, with 0.1 ng/ml NGF, 24 h
[9] = 12.5 μg/ml, sum of 5 fields/well and 3 wells, with 0.1 ng/ml NGF, 24 h
[10] = NGF 0.1 ng/ml (Running control)

Question: Which “Note (reported NGF mimic activity)” value [1] does the source give for `C=C1/C(=C\C=C2/CCC[C@]3(C)[C@@H]([C@H](C)CCCC(C)(C)O)CC[C@@H]23)C[C@@H](O)C[C@@H]1O` [1,25-Dihydroxy-vitamin D3] here?
Answer: NGF inducer

Question: Which “in vitro antibacterial activity” value (Gram-positive bacteria) does the source give for `CC1=CC2CC(C)CCC2C(C)(C(=O)C2=C(O)CNC2=O)C1CC(C)OC1CCC(N)C(C)O1` (stereo not shown) [BU-4514N] here?
Answer: good in vitro antibacterial activity

Question: What about the MIC (S. aureus Smith) of the same compound?
Answer: 3.1 µg/mL (≈ 6.53 µM)

Question: And the MIC (B. subtilis PCI 219)?
Answer: 0.8 µg/mL (≈ 1.69 µM)

Question: What about the MIC (P. aeruginosa A9843A) of the same compound?
Answer: > 100 µg/mL

Question: What about the MIC (M. luteus PCI 1001) of the same compound?
Answer: 1.6 µg/mL (≈ 3.37 µM)

Question: And the MIC (C. fleundii GN 7391)?
Answer: > 100 µg/mL

Question: What about the MIC (E. coli K12) of the same compound?
Answer: > 100 µg/mL

Question: And the MIC (E. coli NIHJ JC-2)?
Answer: > 100 µg/mL

Question: What about the MIC (K. pneumoniae PCI 602) of the same compound?
Answer: > 100 µg/mL

Question: And the MIC (S. aureus FDA 209P JC-1)?
Answer: 1.6 µg/mL (≈ 3.37 µM)

Question: What about the MIC (S. typhi 901) of the same compound?
Answer: > 100 µg/mL

Question: What about the MIC (S. aureus A15036 (MRSA)) of the same compound?
Answer: 3.1 µg/mL (≈ 6.53 µM)

Question: And the MIC (E. coli Juhl A15119)?
Answer: > 100 µg/mL

Question: What about the solubility (Solubility; acidic water) of the same compound?
Answer: soluble

Question: What about the solubility (Solubility; dimethylsulfoxide) of the same compound?
Answer: soluble

Question: What about the solubility (Solubility; methanol) of the same compound?
Answer: soluble

Question: And the solubility (Solubility; ordinary organic solvents, such as chloroform, ethyl acetate and benzene)?
Answer: practically insoluble

Question: What about the solubility (Solubility; water) of the same compound?
Answer: practically insoluble

Question: What about the “No. of Neurites” value (PC 12R cells; [6]) of the same compound?
Answer: 2

Question: What about the “No. of Cells” value (PC 12R cells; [6]) of the same compound?
Answer: 1611

Question: What about the “Ratio (No. of Neurites/No. of Cells)” value (PC 12R cells; [6]) of the same compound?
Answer: 0.12%

Question: What about the “No. of Neurites” value (PC 12R cells; [7]) of the same compound?
Answer: 25

Question: What about the “No. of Cells” value (PC 12R cells; [7]) of the same compound?
Answer: 1848

Question: And the “Ratio (No. of Neurites/No. of Cells)” value (PC 12R cells; [7])?
Answer: 1.4%

Question: And the “No. of Neurites” value (PC 12R cells; [8])?
Answer: 149

Question: What about the “No. of Cells” value (PC 12R cells; [8]) of the same compound?
Answer: 1570

Question: What about the “Ratio (No. of Neurites/No. of Cells)” value (PC 12R cells; [8]) of the same compound?
Answer: 9.5%

Question: What about the “No. of Neurites” value (PC 12R cells; [9]) of the same compound?
Answer: 244

Question: And the “No. of Cells” value (PC 12R cells; [9])?
Answer: 1123

Question: And the “Ratio (No. of Neurites/No. of Cells)” value (PC 12R cells; 12.5 μg/ml, with 0.1 ng/ml NGF, 24 h)?
Answer: 21.7%

Question: What about the “neurite outgrowth in number and length” value (PC 12R cells; 12.5 to 6.3 μg/ml, compared to the negative control cells) of the same compound?
Answer: significantly induces the neurite outgrowth in number and length

Question: Which “Note (reported NGF mimic activity)” value [1] does the source give for `CCCCCCCCCCCCCC(=O)O[C@@H]1[C@@H](C)[C@@]2(O)[C@@H](C=C(CO)C[C@]3(O)C(=O)C(C)=C[C@@H]23)[C@@H]2C(C)(C)[C@]12OC(C)=O` [Phorbol 12-myristate 13-acetate] here?
Answer: NGF inducer

Question: For `CC1=C(/C=C/C(C)=C/C=C/C(C)=C/C(=O)O)C(C)(C)CCC1` [Retinoic acid], which “Note (reported NGF mimic activity)” value [1] is on record?
Answer: NGF inducer

Question: Which results are given for “NGF: protein known to be essential for the development and maintenance of certain sympathetic and sensory neurons in the peripheral nervous system”?
Answer: behavioral recovery ([2]; after damage to the septohippocampal connections): promote behavioral recovery; retrograde neuronal cell death ([2]; intraventricular injections or infusions, young adult rats): prevent retrograde neuronal cell death; cholinergic neuron atrophy and spatial memory impairment [3]: ameliorate cholinergic neuron atrophy and spatial memory impairment; response of PC12 cells to NGF [4]: differentiate into sympathetic neuron-like cells; also recorded: differentiating into sympathetic neuron-like cells; No. of Cells (PC 12R cells; [10]): 1565; Ratio (No. of Neurites/No. of Cells) (PC 12R cells; [10]): 0.13%; No. of Neurites (PC 12R cells; [10]): 2; No. of Cells (PC 12R cells; NGF 5 ng/ml (Positive control)): 1053; Ratio (No. of Neurites/No. of Cells) (PC 12R cells; NGF 5 ng/ml (Positive control)): 6.8%; No. of Neurites (PC 12R cells; NGF 5 ng/ml (Positive control)): 72; sensitivity of PC 12R cells to NGF (PC 12R cells; as high as): 1 ng/mL; support of adrenal medullary autografts [5]: supports adrenal medullary autografts
